Results on two compounds are retold here after paper PMC7551886, “Antitumour Effects of Astaxanthin and Adonixanthin on Glioblastoma” (Marine Drugs, 2020).

One data set deals with Fibronectin mRNA. The data set can be described thus: qRT-PCR of Fibronectin mRNA in GL261. It is filed as cell-based, mouse. To be noted: GL261, 10 µM, 48 h. How it is done:
To evaluate the effect of astaxanthin and adonixanthin on the expression of Fibronectin mRNA expression, we performed quantitative real-time reverse transcription polymerase chain reaction (qRT-PCR) analysis. GL261 cell was seeded at 2.5 × 10^4 cells well in 24-well plates with culture medium supplemented with 10% FBS. After 24 h of incubation, the medium was changed to DMEM containing 10% FBS and 0.1% DMSO PBS, 300 μM temozolomide, 10 µM astaxanthin, or 10 µM adonixanthin was added for 48 h. After 48 h of treatment, RNA was isolated from GL261 cells using Nucleo Spin RNA II (Takara, Shiga, Japan). RNA concentrations were determined using NanoVue Plus (GE Healthcare Japan, Tokyo, Japan). Single-strand cDNAs were synthesized from the isolated RNAs via reverse transcription with a PrimeScript RT Reagent Kit (Perfect Real Time; Takara). Quantitative real-time RT-PCR was performed using TB Green Premix Ex Taq II (Tli RNaseH Plus; Takara) and a TP800 Thermal Cycler Dice Real Time System (Takara). All procedures were carried out in accordance with the manufacturer’s instructions. […] The results are expressed as relative gene expression levels normalized to that of β-actin.
A general note: Real-time PCR tracks product formation cycle by cycle.

For data set [1] the following is noted: ICR, mouse, in vivo, po. Here is the method:
In the experiment of the murine orthotopic glioblastoma model, oral administration of each astaxanthin (10 and 30 mg/kg) and adonixanthin (10 and 30 mg/kg) was initiated 3 days after intracranial injection of GL261 cells and was continued for 10 days. In the experiment of the brain tissue absorption with oral astaxanthin or adonixanthin, after one week of adaptation, ICR mice were randomly divided into the following three groups: control group, astaxanthin group (50 mg/kg), and adonixanthin group (50 mg/kg). Mice were orally administered each reagent suspended in olive oil (5 mL/kg) by the daily single dose for 10 days. The control group was treated by olive oil alone (5 mL/kg).
In mice, blood samples were collected under anaesthesia by using sodium pentobarbital (50 mg/kg, 10 mL/kg, i.p). To separate serum and from blood, we centrifuged at 1700 g for 10 min. […]
Carotenoid fraction was collected from blood and some tissues by silica gel HPLC using a Cosmosil 5SL-II column with acetone:hexane (2:8, v/v) for the mobile phase at a flow rate of 1.0 mL/min as described above. […] Identification of each carotenoid was performed by authentic carotenoids obtained from Paracoccus (ENEOS Corporation, Tokyo, Japan) by our routine methods and the content of each carotenoid was calculated from peak areas by comparison with the authentic samples.

Data set [2] has as its system GL261 cells (intracranial injection). Put plainly: Murine orthotopic glioblastoma model. It is filed as in vivo, mouse. To be noted: oral 10 and 30 mg/kg for 10 days, 2 weeks after GL261 cell injection. How it is done: Murine glioblastoma cell (GL261) transplantation was performed as previously described. Briefly, mice received an intracranial injection of 1 × 10^5 cells in 2 µL of PBS using a Hamilton microliter syringe at the following coordinates: 1 mm anterior, 2 mm lateral (left of middle) to bregma, at a depth of 3 mm from the dural surface. This protocol was completed using a stereotactic frame. In the experiment of the murine orthotopic glioblastoma model, oral administration of each astaxanthin (10 and 30 mg/kg) and adonixanthin (10 and 30 mg/kg) was initiated 3 days after intracranial injection of GL261 cells and was continued for 10 days. In the experiment of the brain tissue absorption with oral astaxanthin or adonixanthin, after one week of adaptation, ICR mice were randomly divided into the following three groups: control group, astaxanthin group (50 mg/kg), and adonixanthin group (50 mg/kg). Mice were orally administered each reagent suspended in olive oil (5 mL/kg) by the daily single dose for 10 days. The control group was treated by olive oil alone (5 mL/kg). Mice were euthanized and […] perfused with cold saline for 2 min at room temperature. […] Pictures were taken using an All-in-One Fluorescence Microscope (BZ-X710; Keyence, Osaka, Japan). We assessed the maximum cross-sectional area of the tumour and tumour volume as described previously.

On to `CC1=C(/C=C/C(C)=C/C=C/C(C)=C/C=C/C=C(C)/C=C/C=C(C)/C=C/C2=C(C)C(=O)[C@@H](O)CC2(C)C)C(C)(C)C[C@H](O)C1` [Adonixanthin, adonixanthin], for which, in the data set with Fibronectin mRNA, the “mRNA level of fibronectin” value is on record as “decreased”. For the same compound, the “concentration detected in the brain” value in data set [1] was about 10 nM. Moreover, the “tumour enlargement (tumour area and volume)” value in data set [2] was “significantly suppressed tumour enlargement”.
For `CC1=C(/C=C/C(C)=C/C=C/C(C)=C/C=C/C=C(C)/C=C/C=C(C)/C=C/C2=C(C)C(=O)[C@@H](O)CC2(C)C)C(C)(C)C[C@H](O)C1=O` [Astaxanthin, astaxanthin] the same measures were “decreased”, “approximately 30 nM” and “significantly suppressed tumour enlargement”.
